# Test results as given in patent US9657092B2, “S100A4 antibodies and therapeutic uses thereof” (LYKERA BIOMED SA, priority 2010, dated 2017).
# pEC50: −log10 of the molar value.
# System: MiaPACA-2 cells
# Assay: Cytotoxic effect measured by hexosaminidase activity
# Format: cell-based
# Details: Homo sapiens, MIA PaCa-2; gemcitabine alone, 72 h; read-out: EC50 cell viability
# Protocol: Briefly, MiaPACA-2 cells were plated onto 96-well cell culture plates (5×10^3 cells/well) in 50 μl of DMEM medium. […] After removing the culture media cells were washed once with PBS. Sixty microliters of substrate solution (p-nitrophenol-N-acetyl-beta-D-glucosamide 7.5 mM, sodium citrate 0.1 M, 0.25% Triton X-100, pH 5.0) was added to each well and plates were incubated at 37° C. for 2 hours; after this incubation time, a bright yellow appears and plates were developed by adding 90 μl of developer solution (Glycine 50 mM, EDTA 5 mM, pH 10.4), and the absorbance at 450 nm was measured by using a multi-well scanning spectrophotometer. Data analysis was done normalizing the results with the negative control (untreated cells) which were considered as 100% of viability.
# Curves were adjusted using a sigmoidal dose-response (variable slope) equation, and EC50 values were obtained from the equation: Y=Bottom+(Top−Bottom)/(1+10^((Log EC50−X)*HillSlope)) where X is the logarithm of concentration and Y is the response. Y starts at Bottom and goes to Top with a sigmoid shape.
smiles,measurement,value
Nc1ccn([C@@H]2O[C@H](CO)[C@@H](O)C2(F)F)c(=O)n1 [gemcitabine],pEC50,8.08
